From PMC10702058, “Phase I dose escalation study and pilot efficacy analysis of LXI-15029, a novel mTOR dual inhibitor, in Chinese subjects with advanced malignant solid tumors” (BMC Cancer, 2023)
Entries after “also recorded” stand apart in the source; their conditions may differ.

Test: Phase I dose escalation: safety and tolerability (DLT, MTD, adverse events, NCI-CTCAE 4.03)

CNC(=O)c1cccc(-c2ccc3c(N4C5CCC4COC5)nc(N4CCOC[C@@H]4C)nc3n2)c1 [LXI-15029]
≥ 10% TRAE: Hypercholesterolemia (80 mg BID (n = 4)): 0 n (%) | ≥ 10% TRAE: Hypertriglyceridemia (80 mg BID (n = 4)): 0 n (%) | ≥ 10% TRAE: LDL increased (80 mg BID (n = 4)): 0 n (%) | ≥ 10% TRAE: Leukocytopenia (80 mg BID (n = 4)): 2 (50.0) n (%) | ≥ 10% TRAE: Neutropenia (80 mg BID (n = 4)): 0 n (%) | ≥ 10% TRAE: Sinus bradycardia (80 mg BID (n = 4)): 1 (25.0) n (%) | Patients with any TEAE (110 mg BID (n = 3)): 3 (100.0) n (%) | Patients with any TEAE, maximum CTCAE Grade 1 (110 mg BID (n = 3)): 3 (100.0) n (%) | Patients with any TEAE, maximum CTCAE Grade 2 (110 mg BID (n = 3)): 0 n (%) | Patients with any TEAE, maximum CTCAE Grade 3 (110 mg BID (n = 3)): 0 n (%) | ≥ 10% TRAE: ALT increased (110 mg BID (n = 3)): 1 (33.3) n (%) | ≥ 10% TRAE: AST increased (110 mg BID (n = 3)): 2 (66.7) n (%) | ≥ 10% TRAE: Decreased appetite (110 mg BID (n = 3)): 0 n (%) | ≥ 10% TRAE: Diarrhea (110 mg BID (n = 3)): 0 n (%) | ≥ 10% TRAE: ECG QT prolonged (110 mg BID (n = 3)): 2 (66.7) n (%) | ≥ 10% TRAE: Fatigue (110 mg BID (n = 3)): 0 n (%) | ≥ 10% TRAE: GGT increased (110 mg BID (n = 3)): 0 n (%) | ≥ 10% TRAE: Hypercholesterolemia (110 mg BID (n = 3)): 0 n (%) | ≥ 10% TRAE: Hypertriglyceridemia (110 mg BID (n = 3)): 0 n (%) | ≥ 10% TRAE: LDL increased (110 mg BID (n = 3)): 0 n (%) | ≥ 10% TRAE: Leukocytopenia (110 mg BID (n = 3)): 1 (33.3) n (%) | ≥ 10% TRAE: Neutropenia (110 mg BID (n = 3)): 0 n (%) | ≥ 10% TRAE: Sinus bradycardia (110 mg BID (n = 3)): 0 n (%) | Patients with any TEAE (150 mg BID (n = 4)): 4 (100.0) n (%) | Patients with any TEAE, maximum CTCAE Grade 1 (150 mg BID (n = 4)): 2 (50.0) n (%) | Patients with any TEAE, maximum CTCAE Grade 2 (150 mg BID (n = 4)): 1 (25.0) n (%) | Patients with any TEAE, maximum CTCAE Grade 3 (150 mg BID (n = 4)): 1 (25.0) n (%) | ≥ 10% TRAE: ALT increased (150 mg BID (n = 4)): 2 (50.0) n (%) | ≥ 10% TRAE: AST increased (150 mg BID (n = 4)): 2 (50.0) n (%) | ≥ 10% TRAE: Decreased appetite (150 mg BID (n = 4)): 1 (25.0) n (%) | ≥ 10% TRAE: Diarrhea (150 mg BID (n = 4)): 0 n (%) | ≥ 10% TRAE: ECG QT prolonged (150 mg BID (n = 4)): 0 n (%) | ≥ 10% TRAE: Fatigue (150 mg BID (n = 4)): 0 n (%) | ≥ 10% TRAE: GGT increased (150 mg BID (n = 4)): 2 (50.0) n (%) | ≥ 10% TRAE: Hypercholesterolemia (150 mg BID (n = 4)): 0 n (%) | ≥ 10% TRAE: Hypertriglyceridemia (150 mg BID (n = 4)): 1 (25.0) n (%) | ≥ 10% TRAE: LDL increased (150 mg BID (n = 4)): 0 n (%) | ≥ 10% TRAE: Leukocytopenia (150 mg BID (n = 4)): 3 (75.0) n (%) | ≥ 10% TRAE: Neutropenia (150 mg BID (n = 4)): 3 (75.0) n (%) | ≥ 10% TRAE: Sinus bradycardia (150 mg BID (n = 4)): 1 (25.0) n (%) | dose-limiting toxicity (DLT) (150 mg BID group, one participant, within the DLT observation window): grade 3 increased alanine aminotransferase (ALT); also recorded: Only one DLT was observed | Patients with any TEAE, maximum CTCAE Grade 1 (Total (n = 24)): 15 (62.5) n (%) | Patients with any TEAE, maximum CTCAE Grade 2 (Total (n = 24)): 6 (25.0) n (%) | Patients with any TEAE, maximum CTCAE Grade 3 (Total (n = 24)): 1 (4.2) n (%) | ≥ 10% TRAE: ALT increased (Total (n = 24)): 5 (20.8) n (%) | ≥ 10% TRAE: AST increased (Total (n = 24)): 5 (20.8) n (%) | ≥ 10% TRAE: Decreased appetite (Total (n = 24)): 3 (12.5) n (%) | ≥ 10% TRAE: Diarrhea (Total (n = 24)): 4 (16.7) n (%) | ≥ 10% TRAE: ECG QT prolonged (Total (n = 24)): 5 (20.8) n (%) | ≥ 10% TRAE: Fatigue (Total (n = 24)): 4 (16.7) n (%) | ≥ 10% TRAE: GGT increased (Total (n = 24)): 4 (16.7) n (%) | ≥ 10% TRAE: Hypercholesterolemia (Total (n = 24)): 3 (12.5) n (%) | ≥ 10% TRAE: Hypertriglyceridemia (Total (n = 24)): 5 (20.8) n (%) | ≥ 10% TRAE: LDL increased (Total (n = 24)): 3 (12.5) n (%) | ≥ 10% TRAE: Leukocytopenia (Total (n = 24)): 10 (41.7) n (%) | ≥ 10% TRAE: Neutropenia (Total (n = 24)): 4 (16.7) n (%) | ≥ 10% TRAE: Sinus bradycardia (Total (n = 24)): 4 (16.7) n (%) | TRAEs of CTCAE grade 1 (all doses): 62.5% | TRAEs of CTCAE grade 2 (all doses): 25% | other serious treatment-related AEs (besides the DLT) (all doses): No other serious treatment-related AEs were reported | mean ALT change from baseline (all doses except the 10-mg and 80-mg doses): increased slightly | mean AST change from baseline (all doses except the 10-mg, 60-mg, and 80-mg doses): increased slightly | treatment-related AE: hypertriglyceridemia (all doses, 24 patients): 20.8% | treatment-related AE: increased alanine aminotransferase (all doses, 24 patients): 20.8% | treatment-related AE: increased aspartate aminotransferase (all doses, 24 patients): 20.8% | treatment-related AE: leukocytopenia (all doses, 24 patients): 41.7% | treatment-related AE: prolonged electrocardiogram QT interval (all doses, 24 patients): 20.8% | deaths within 28 days of the last dose (attributed to disease progression unrelated to treatment): One | association of AE rates, laboratory parameters, vital signs, ECG, other safety data with dose levels (descriptive results): No apparent associations | participants with TEAEs leading to LXI-15029 discontinuation (of 24 participants): Three | participants with a TRAE leading to LXI-15029 discontinuation (of 24 participants): one | participants with a serious TRAE (of 24 participants): one | participants with serious TEAEs (of 24 participants): Five | participants with treatment-emergent AEs (TEAEs) (of 24 participants): 24 participants | participants with treatment-related AEs (TRAEs) (of 24 participants): 22 participants | patients with TEAEs occurring within 30 days after LXI-15029 discontinuation (of 24 participants): Eleven | treatment discontinuation because of AEs (of 24 participants): 2 (8.3%) n (%) | treatment discontinuation because of DLT (of 24 participants): 1 (4.2%) n (%) | tolerability (oral BID, 10 to 150 mg): well tolerated at all doses; also recorded: well tolerated at all dose levels; also recorded: well tolerable | maximum tolerated dose (MTD) (oral monotherapy, Chinese patients with advanced solid tumors): 110 mg BID
